Test results as given in patent US8247409B2, “Thieno-[2,3-d]pyrimidine and thieno-pyridazine compounds and methods of use” (Amgen Inc., priority 2006, dated 2012).

Tested on: LPS induced TNF release from monocytes
Experiment: Lipopolysaccharide-activated Monocyte TNF Production Assay
Format: cell-based
Conditions: Homo sapiens, monocytes activated with LPS, TNF in supernatant by ELISA
Experimental: Lipopolysaccharide-activated Monocyte TNF Production Assay
Test compounds were evaluated in vitro for the ability to inhibit the production of TNF by monocytes activated with bacterial lipopolysaccharide (LPS). Fresh residual source leukocytes (a byproduct of plateletpheresis) were obtained from a local blood bank, and peripheral blood mononuclear cells (PBMCs) were isolated by density gradient centrifugation on Ficol-Paque Plus (Pharmacia). PBMCs were suspended at 2×10^6/mL in DMEM supplemented to contain 2% FCS, 10 mM, 0.3 mg/mL […], 100 U/mL penicillin G and […] streptomycin sulfate (complete media). Cells were plated into Falcon flat bottom, 96 well culture plates (200 μL/well) and cultured overnight at 37° C. and 6% CO2. Non-adherent cells were removed by washing with 200 μL/well of fresh medium. Wells containing adherent cells (˜70% monocytes) were replenished with 100 μL of fresh medium.
Preparation of Test Compound Stock Solutions
Test compounds were dissolved in […]. Compound stock solutions were prepared to an initial concentration of […]. Stocks were diluted initially to 20-200 μM in complete media. Nine two-fold serial dilutions of each compound were then prepared in complete medium.
Treatment of Cells with Test Compounds and Activation of TNF Production with Lipopolysaccharide
One hundred microliters of each test compound dilution were added to microtiter wells containing adherent monocytes and 100 μL complete medium. Monocytes were cultured with test compounds for 60 min at which time 25 μL of complete medium containing 30 ng/mL lipopolysaccharide from E. coli K532 were added to each well. Cells were cultured an additional 4 hrs. Culture supernatants were then removed and TNF presence in the supernatants was quantified using an ELISA.
Flat bottom, 96 well Corning High Binding ELISA plates were coated overnight (4° C.) with 150 μL/well of 3 μg/mL murine anti-human TNF-α MAb (R&D Systems #MAB210). Wells were then blocked for 1 h at room temperature with 200 μL/well of CaCl2-free ELISA buffer supplemented to contain 20 mg/mL BSA (standard ELISA buffer: […], 150 mM NaCl, 2 mM CaCl2, 0.15 mM thimerosal, pH 7.4). Plates were washed and replenished with 100 μL of test supernatants (diluted 1:3) or standards. Standards consisted of eleven 1.5-fold serial dilutions from a stock of 1 ng/mL recombinant human TNF (R&D Systems). Plates were incubated at room temperature for 1 hr on orbital shaker (300 rpm); washed and replenished with 100 μL/well of 0.5 μg/mL goat anti-human TNF-α (R&D systems #AB-210-NA) biotinylated at a 4:1 ratio. Plates were incubated for 40 min, washed and replenished with 100 μL/well of alkaline phosphatase-conjugated streptavidin (Jackson ImmunoResearch #016-050-084) at 0.02 μg/mL. Plates were incubated 30 min, washed and replenished with 200 μL/well of 1 mg/mL of p-nitrophenyl phosphate. After 30 min, plates were read at 405 nm on a Vmax plate reader.
Standard curve data were fit to a second order polynomial and unknown TNF-α concentrations determined from their OD by solving this equation for concentration. TNF concentrations were then plotted vs. test compound concentration using a second order polynomial. This equation was then used to calculate the concentration of test compounds causing a 50% reduction in TNF production.

Row | SMILES | IC50 [µM]
1 | CCN(CC)CCCNc1ncc2cc(-c3cc(C(=O)NC4CC4)ccc3C)sc2n1 [Example 7, N-cyclopropyl-3-(2-((3-(diethylamino)propyl)amino)thieno[2,3-d]pyrimidin-6-yl)-4-methylbenzamide] | ≤ 5
2 | COc1ncccc1-c1nncc2cc(-c3cc(C(=O)NC4CC4)ccc3C)sc12 [Example 23, N-cyclopropyl-4-methyl-3-(7-(2-(methyloxy)-3-pyridinyl)thieno[2,3-d]pyridazin-2-yl)benzamide] | ≤ 5
3 | Cc1ccc(C(N)=O)cc1-c1cc2cnnc(-c3ccc(F)cc3C)c2s1 [Example 27, 3-(7-(4-fluoro-2-methylphenyl)thieno[2,3-d]pyridazin-2-yl)-4-methylbenzamide] | ≤ 5
4 | Cc1ccc(C(=O)NC2CC2)cc1-c1cc2cnnc(N3CCNC(=O)C3)c2s1 [Example 6, N-cyclopropyl-4-methyl-3-(7-(3-oxopiperazin-1-yl)thieno[2,3-d]pyridazin-2-yl)benzamide] | ≤ 5
5 | Cc1ccc(C(=O)NC2CC2)cc1-c1cc2cnnc(Cl)c2s1 [Example 21, 3-(7-chlorothieno[2,3-d]pyridazin-2-yl)-N-cyclopropyl-4-methylbenzamide] | ≤ 5
6 | Cc1ccc(C(=O)NC2CC2)cc1-c1cc2cnc(NCC3CCCN(C(=O)OC(C)(C)C)C3)nc2s1 (centres unmarked) [Example 14, 1,1-dimethylethyl 3-(((6-(5-((cyclopropylamino)carbonyl)-2-methylphenyl)thieno[2,3-d]pyrimidin-2-yl)amino)methyl)-1-piperidinecarboxylate] | ≤ 5
7 | Cc1ccc(C(=O)NC2CC2)cc1-c1cc2cnnc(-c3ccc(F)cc3C)c2s1 [Example 22, N-cyclopropyl-3-(7-(4-fluoro-2-methylphenyl)thieno[2,3-d]pyridazin-2-yl)-4-methylbenzamide] | ≤ 5
8 | Cc1ccc(C(=O)NC2CC2)cc1-c1cc2cnc(CCN3CCOCC3)nc2s1 [Example 1, N-Cyclopropyl-4-methyl-3-(2-(2-morpholinoethyl)thieno[2,3-d]pyrimidin-6-yl)benzamide] | ≤ 5
9 | Cc1ccc(C(=O)O)cc1-c1cc2cnc(NCCN3CCOCC3)nc2s1 [Example 10, 4-methyl-3-(2-((2-(4-morpholinyl)ethyl)amino)thieno[2,3-d]pyrimidin-6-yl)benzoic acid] | ≤ 5
10 | CCNC(=O)c1ccc(C)c(-c2cc3cnc(NCCN4CCOCC4)nc3s2)c1 [Example 9, N-ethyl-4-methyl-3-(2-((2-(4-morpholinyl)ethyl)amino)thieno[2,3-d]pyrimidin-6-yl)benzamide] | ≤ 5
11 | COc1c(F)cccc1-c1nncc2cc(-c3cc(C(=O)NC4CC4)ccc3C)sc12 [Example 3, N-cyclopropyl-3-(7-(3-fluoro-2-methoxyphenyl)thieno[2,3-d]pyridazin-2-yl)-4-methylbenzamide] | ≤ 5
